Measured values as given in patent US12552825B2 (Zikani Therapeutics, Inc., priority 2019, dated 2026).
In brackets after ≈: the same amount, converted by molar mass.

Legend:
Assay type in all cases: cell-based
P. aeruginosa MP-3 = experiment: MIC determination by CLSI broth dilution, P. aeruginosa MP-3; conditions: Pseudomonas aeruginosa, MP3, strain MP-3
K. pneumoniae MP-546 = experiment: MIC determination by CLSI broth dilution, K. pneumoniae MP-546; conditions: Klebsiella pneumoniae, MP546, CLSI broth dilution; strain MP-546
A. baumannii MP-15 = experiment: MIC determination by CLSI broth dilution, A. baumannii MP-15; conditions: Acinetobacter baumannii, MP15, strain MP-15, read-out: MIC A. baumanii MP-15
E. coli MP-4 = experiment: MIC determination by CLSI broth dilution, E. coli MP-4; conditions: Escherichia coli, MP4, CLSI broth dilution; strain MP-4
S. aureus MP-12 = experiment: microbe, parasite or virus in culture; conditions: Staphylococcus aureus, MP12, read-out: MIC S. aureus MP-12

Structure (SMILES)	MIC (P. aeruginosa MP-3)	MIC (K. pneumoniae MP-546)	MIC (A. baumannii MP-15)	MIC (E. coli MP-4)	MIC (S. aureus MP-12)
CO[C@]1(C)C[C@@H](C)CN(C)[C@@H](CN(C)C(=O)CN(C)C)COC(=O)C(C)(C)C(=O)[C@H](C)[C@H]1O[C@@H]1O[C@H](C)C[C@H](N(C)C)[C@H]1O [Compound 13, 2-(dimethylamino)-N-(((3S,6R,8R,9R,10R)-9-(((2S,3R,4S,6R)-4-(dimethylamino)-3-hydroxy-6-methyltetrahydro-2H-pyran-2-yl)oxy)-8-methoxy-4,6,8,10,12,12-hexamethyl-11,13-dioxo-1-oxa-4-azacyclotridecan-3-yl)methyl)-N-methylacetamide]	> 32 µg/mL	4 to 32 µg/mL (≈ 6.36 to 50.9 µM)	> 32 µg/mL	4 to 32 µg/mL (≈ 6.36 to 50.9 µM)	> 32 µg/mL
C=C[C@@H]1COC(=O)C(C)(C)C(=O)[C@H](C)[C@@H](O[C@@H]2O[C@H](C)C[C@H](N(C)C)[C@H]2O)[C@](C)(OC)C[C@@H](C)CN1C [Compound 14, (3R,6R,8R,9R,10R)-9-(((2S,3R,4S,6R)-4-(Dimethylamino)-3-hydroxy-6-methyltetrahydro-2H-pyran-2-yl)oxy)-8-methoxy-4,6,8,10,12,12-hexamethyl-3-vinyl-1-oxa-4-azacyclotridecane-11,13-dione]	> 32 µg/mL	4 to 32 µg/mL (≈ 7.59 to 60.8 µM)	> 32 µg/mL	4 to 32 µg/mL (≈ 7.59 to 60.8 µM)	> 32 µg/mL
CNC[C@H]1COC(=O)C(C)(C)C(=O)[C@H](C)[C@@H](O[C@@H]2O[C@H](C)C[C@H](N(C)C)[C@H]2O)[C@](C)(OC)C[C@@H](C)CN1 [Compound 15, (3S,6R,8R,9R,10R)-9-(((2S,3R,4S,6R)-4-(Dimethylamino)-3-hydroxy-6-methyltetrahydro-2H-pyran-2-yl)oxy)-8-methoxy-6,8,10,12,12-pentamethyl-3-((methylamino)methyl)-1-oxa-4-azacyclotridecane-11,13-dione]	> 32 µg/mL	> 32 µg/mL	> 32 µg/mL	4 to 32 µg/mL (≈ 7.55 to 60.4 µM)	> 32 µg/mL
CO[C@]1(C)C[C@@H](C)CN(C)[C@@H](CCCNC(C)C)COC(=O)C(C)(C)C(=O)[C@H](C)[C@H]1O[C@@H]1O[C@H](C)C[C@H](N(C)C)[C@H]1O [Compound 16, (3S,6R,8R,9R,10R)-9-(((2S,3R,4S,6R)-4-(dimethylamino)-3-hydroxy-6-methyltetrahydro-2H-pyran-2-yl)oxy)-3-(3-(isopropylamino)propyl)-8-methoxy-4,6,8,10,12,12-hexamethyl-1-oxa-4-azacyclotridecane-11,13-dione]	> 32 µg/mL	4 to 32 µg/mL (≈ 6.67 to 53.3 µM)	> 32 µg/mL	< 4 µg/mL	4 to 32 µg/mL (≈ 6.67 to 53.3 µM)
CO[C@]1(C)C[C@@H](C)CN[C@@H](CN(C)C)COC(=O)C(C)(C)C(=O)[C@H](C)[C@H]1O[C@@H]1O[C@H](C)C[C@H](N(C)C)[C@H]1O [Compound 17, (3S,6R,8R,9R,10R)-9-(((2S,3R,4S,6R)-4-(dimethylamino)-3-hydroxy-6-methyltetrahydro-2H-pyran-2-yl)oxy)-3-((dimethylamino)methyl)-8-methoxy-6,8,10,12,12-pentamethyl-1-oxa-4-azacyclotridecane-11,13-dione]	> 32 µg/mL	> 32 µg/mL	> 32 µg/mL	> 32 µg/mL	> 32 µg/mL
CCN(CC)CCC[C@H]1COC(=O)C(C)(C)C(=O)[C@H](C)[C@@H](O[C@@H]2O[C@H](C)C[C@H](N(C)C)[C@H]2O)[C@](C)(OC)C[C@@H](C)CN1C [Compound 19, (3S,6R,8R,9R,10R)-3-(3-(diethylamino)propyl)-9-(((2S,3R,4S,6R)-4-(dimethylamino)-3-hydroxy-6-methyltetrahydro-2H-pyran-2-yl)oxy)-8-methoxy-4,6,8,10,12,12-hexamethyl-1-oxa-4-azacyclotridecane-11,13-dione]	> 32 µg/mL	< 4 µg/mL	> 32 µg/mL	< 4 µg/mL	4 to 32 µg/mL (≈ 6.52 to 52.1 µM)
